Target: wild type c-kit (Homo sapiens (Human), UniProt P10721)
Experiment: PathScan phospho c-kit (Tyr719) sandwich ELISA in SCF-stimulated M-07e cells (pKIT assay)
Type: cell-based
Conditions: ELISA assay (values not marked *)
Excerpt: The ability of compounds of the disclosure (described herein as test compounds) to inhibit autophosphorylation of wild type c-kit was measures using either a PathScan phospho c-kit (Tyr719) sandwich ELISA (CST #7298) or a Phospho c-Kit (Tyr721) Assay Whole Cell Lysate Kit (MSD: 515DPD/catalog number K15119D-2).
For the PathScan phospho c-kit (Tyr719) sandwich ELISA: M-07e cells were resuspended at 2×10^6 cells/mL in phenol red free, serum-free, GM-CSF-free Iscove's Modified Dulbecco's Medium (IMDM) media with 1% Penicillin-Streptomycin. The cells were then dispensed into the wells of a U-bottom, 96-well plate at 50 uL per well using a multichannel pipet. The plate was allowed to incubate at 37° C. in a humidified tissue culture incubator for 4 hours.
After 4 hours of incubation, each well was dosed with 6.25 uL of test compound at a final DMSO concentration of 0.25% for 60 min at 37° C. to generate an 8-point dose concentration series of test compounds in duplicate. Cells were then incubated for 1 hour at 37° C. in a humidified tissue culture incubator. Next, human SCF at 500 ng/mL was added to the appropriate wells at 6.25 uL/well and the plate was shaken at 450 rpm at room temperature for 10 minutes. AlphaLISA 5× Lysis Buffer supplemented with 1× protease and phosphatase inhibitor was then added at 16 uL/well. The plate was sealed with an adherent cover and shaken at 4° C. at 600 rpm for 30 minutes. After this period of lysis, the plate was stored at −80° C.
When the 96-well plate containing M07e lysates was ready to be processed, the plate was brought to room temperature and 40 μl from each well was transferred to the wells of a PathScan Phospho-c-Kit (Tyr719) Sandwich ELISA plate (CST, Catalog #7298). The ELISA plate was sealed with an adherent cover and incubated for 2 hours at 37° C. Next, the wells were washed 4 times with the provided 1× Wash Buffer, and 100 uL/well of reconstituted Detection Antibody was added to each well, the plate sealed with an adherent cover, and incubated at 37° C. for 1 hour. The wash procedure was repeated and 100 uL/well of reconstituted HRP-Linked secondary antibody was added. The plate was sealed with an adherent cover and incubated at 37° C. for 1 hour. The wash procedure was repeated and 100 uL/well of TMB Substrate was added. The plate was incubated for 10 minutes at room temperature or until the positive reaction elicited a blue color in the appropriate wells. 100 uL/well of STOP solution was added and shaken gently for a few seconds a microplate reader or conventional spectrophotometer e.g., a Perkin Elmer Envision multimode plate reader, part #2105-0010.
An IC50 was calculated using a 4-parameter logistic nonlinear regression.

Chain of wild type c-kit (P10721 26-976): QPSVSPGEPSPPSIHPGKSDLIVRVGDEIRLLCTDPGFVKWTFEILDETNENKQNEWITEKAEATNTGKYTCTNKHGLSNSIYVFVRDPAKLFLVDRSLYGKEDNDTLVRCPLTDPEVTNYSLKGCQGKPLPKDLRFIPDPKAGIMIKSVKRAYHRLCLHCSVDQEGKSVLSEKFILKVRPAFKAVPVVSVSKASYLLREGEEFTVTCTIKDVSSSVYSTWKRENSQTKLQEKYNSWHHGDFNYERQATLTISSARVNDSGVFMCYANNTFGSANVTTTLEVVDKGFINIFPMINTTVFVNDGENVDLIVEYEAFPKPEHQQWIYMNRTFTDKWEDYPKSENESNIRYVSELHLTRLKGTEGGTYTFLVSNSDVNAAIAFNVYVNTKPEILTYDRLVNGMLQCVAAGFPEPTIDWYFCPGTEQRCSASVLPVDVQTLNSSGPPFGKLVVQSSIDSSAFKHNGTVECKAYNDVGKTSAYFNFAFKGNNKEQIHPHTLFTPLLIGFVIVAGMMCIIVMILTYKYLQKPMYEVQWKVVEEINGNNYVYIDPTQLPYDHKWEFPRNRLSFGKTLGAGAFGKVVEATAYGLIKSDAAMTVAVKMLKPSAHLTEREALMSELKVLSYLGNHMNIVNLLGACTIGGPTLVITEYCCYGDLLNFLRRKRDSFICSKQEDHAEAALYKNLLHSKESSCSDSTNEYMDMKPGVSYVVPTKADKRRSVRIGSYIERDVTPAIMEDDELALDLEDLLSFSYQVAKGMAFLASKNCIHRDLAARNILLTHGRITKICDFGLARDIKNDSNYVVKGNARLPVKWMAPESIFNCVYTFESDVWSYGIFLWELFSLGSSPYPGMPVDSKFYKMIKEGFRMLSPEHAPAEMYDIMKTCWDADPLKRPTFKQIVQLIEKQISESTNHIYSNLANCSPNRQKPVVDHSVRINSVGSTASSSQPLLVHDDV

Structure (SMILES) | IC50
CNc1ccn2ncc(C(=O)Nc3cc(-n4ncc(C5CN(C(=O)OC)C5)n4)ccc3C)c2c1 [Example 138, methyl 3-(2-(4-methyl-3-(5-(methylamino)pyrazolo[1,5-a]pyridine-3-carboxamido)phenyl)-2H-1,2,3-triazol-4-yl)azetidine-1-carboxylate] | 13.4 nM
Cc1ccc(-c2nnn(CCOC3CCC3)n2)cc1NC(=O)c1cnn2ccccc12 [Example 12, N-(5-(2-(2-cyclobutoxyethyl)-2H-tetrazol-5-yl)-2-methylphenyl)pyrazolo[1,5-a]pyridine-3-carboxamide] | 2.4 nM
Cc1nn(C[C@H](O)CO)c(C)c1-c1ccn2ncc(C(=O)Nc3cc(-c4nnn(C5CC5)n4)ccc3Cl)c2c1 [Example 275, (S)-N-(2-chloro-5-(2-cyclopropyl-2H-tetrazol-5-yl)phenyl)-5-(1-(2,3-dihydroxypropyl)-3,5-dimethyl-1H-pyrazol-4-yl)pyrazolo[1,5-a]pyridine-3-carboxamide] | 0.1 nM
COCCNc1ccn2ncc(C(=O)Nc3cc(-c4nnn(C5CN(C(=O)OC)C5)n4)ccc3C)c2c1C [Example 45, methyl 3-(5-(3-(5-((2-methoxyethyl)amino)-4-methylpyrazolo[1,5-a]pyridine-3-carboxamido)-4-methylphenyl)-2H-tetrazol-2-yl)azetidine-1-carboxylate] | 70.2 nM
COC(=O)N1CC(n2nnc(-c3ccc(C)c(NC(=O)c4cnn5ccc(N[C@@H]6CCOC6)cc45)c3)n2)C1 [Example 129, methyl (R)-3-(5-(4-methyl-3-(5-((tetrahydrofuran-3-yl)amino)pyrazolo[1,5-a]pyridine-3-carboxamido)phenyl)-2H-tetrazol-2-yl)azetidine-1-carboxylate] | 29.6 nM

The next lines start with the values.

IC50 | Structure (SMILES)
1.1 nM | COC[C@@H](O)Cn1ncc(-c2ccn3ncc(C(=O)Nc4cc(-c5nnn(C6CC6)n5)c(C)cc4Cl)c3c2)c1C [Example 262, (S)-N-(2-chloro-5-(2-cyclopropyl-2H-tetrazol-5-yl)-4-methylphenyl)-5-(1-(2-hydroxy-3-methoxypropyl)-5-methyl-1H-pyrazol-4-yl)pyrazolo[1,5-a]pyridine-3-carboxamide]
0.4 nM | Cc1nnn(-c2ccc(C)c(NC(=O)c3cnn4ccc(-c5c(C)nn(CC(C)(C)O)c5C)cc34)c2)n1 [Example 244, 5-(1-(2-hydroxy-2-methylpropyl)-3,5-dimethyl-1H-pyrazol-4-yl)-N-(2-methyl-5-(5-methyl-2H-tetrazol-2-yl)phenyl)pyrazolo[1,5-a]pyridine-3-carboxamide]
17.1 nM | COC(=O)N1CC(n2nnc(-c3ccc(C)c(NC(=O)c4cnn5ccc(NCCO)cc45)c3)n2)C1 [Example 142, Methyl 3-(5-(3-(5-((2-hydroxyethyl)amino)pyrazolo[1,5-a]pyridine-3-carboxamido)-4-methylphenyl)-2H-tetrazol-2-yl)azetidine-1-carboxylate]
15.6 nM | COCCNc1ccn2ncc(C(=O)Nc3cc(-c4nnn([C@H]5C[C@H](CO)C5)n4)ccc3C)c2c1 [Example 201, N-(5-(2-((1r,3r)-3-(hydroxymethyl)cyclobutyl)-2H-tetrazol-5-yl)-2-methylphenyl)-5-((2-methoxyethyl)amino)pyrazolo[1,5-a]pyridine-3-carboxamide]
0.4 nM | Cc1cc(F)c(-c2nnn(C3CC3)n2)cc1NC(=O)c1cnn2ccc(-c3cn(C[C@H](O)C(C)(C)O)nc3C3CC3)cc12 [Example 258, (S)-5-(3-cyclopropyl-1-(2,3-dihydroxy-3-methylbutyl)-1H-pyrazol-4-yl)-N-(5-(2-cyclopropyl-2H-tetrazol-5-yl)-4-fluoro-2-methylphenyl)pyrazolo[1,5-a]pyridine-3-carboxamide]
2.7 nM | Cc1ccc(-c2nnn(C)n2)cc1NC(=O)c1cnn2cc(-c3cnn(CC(C)(C)O)c3)cc(F)c12 [Example 214, 4-fluoro-6-(1-(2-hydroxy-2-methylpropyl)-1H-pyrazol-4-yl)-N-(2-methyl-5-(2-methyl-2H-tetrazol-5-yl)phenyl)pyrazolo[1,5-a]pyridine-3-carboxamide]

Source: US20240262826A1, “WILD TYPE KIT INHIBITORS” (Blueprint Medicines Corporation, priority 2022, published 2024)
